From patent publication US20070219185A1, “Preventive or therapeutic agent for neuropathic pain” (priority 2004, published 2007) come the findings set out here.

The subject of test [1] is STZ-induced diabetic rats. The experiment in a line: Nociceptive threshold in STZ-induced diabetic rats (single administration), Randall-Selitto method. As to conditions: for Nociceptive threshold before administration / Nociceptive threshold after administration: mean±SE; for Nociceptive threshold after administration: one hour after administration. Format: in vivo, rat. As for the experimental part: Measurement of the Nociceptive Threshold in STZ-Induced Diabetic Rats (Single Administration)
STZ (50 mg/kg) was administered intravenously to male SD stain rats to induce diabetes mellitus. Test articles were administered 14 days later (10 rats in each group). Test articles used were clonidine as the α2 AR stimulant, terbutaline as the β2 AR stimulant and the above-mentioned Compound 1. Normal and Control groups received the medium (0.5% methylcellulose). Before and one hour after administration of test articles, the nociceptive threshold against pressure stimulation given to the right hind-paw of rats was measured by Randall-Selitto method, and compared with that in Control group.

In test [2] the test system is STZ-induced diabetic rats. The experiment in a line: Nociceptive threshold in STZ-induced diabetic rats (repeated administration), Randall-Selitto method. Format: in vivo, rat. The conditions noted are these: for Nociceptive threshold before administration / Nociceptive threshold after administration / nociceptive threshold following repeated administration for 14 days: Example 2; for Nociceptive threshold before administration / Nociceptive threshold after administration: 14 times, mean±SE; for Nociceptive threshold before administration: before the final administration; for Nociceptive threshold after administration: one hour after the final administration; for nociceptive threshold following repeated administration for 14 days: H group (clonidine 1.0 mg/kg subcutaneous; terbutaline 10 mg/kg oral), versus Control group; for nociceptive threshold after 14-day repeated, sole administration: Example 3, FIG. 1, L and M groups (clonidine 0.1, 0.3 mg/kg subcutaneous; terbutaline 1, 3 mg/kg oral). As for the experimental part: Measurement of the Nociceptive Threshold in STZ-Induced Diabetic Rats (Repeated Administration)
STZ (50 mg/kg) was administered intravenously to male SD stain rats to induce diabetes mellitus. […] Normal and Control groups received the medium (0.5% methylcellulose). Before the final administration (before administration of test articles) and after the final administration (one hour after the administration), the nociceptive threshold against pressure stimulation given to the right hind-paw of rats was measured by Randall-Selitto method, and compared with that in Control group.

The target in the next test is T1, β2 AR (Rattus norvegicus, UniProt P10608).
T1 construct: the fascia of gravid uterus (β2 AR) as the sources of receptors; from tissue; host or cells: rat gravid uterus (fascia/membrane specimen)
The experiment in a line: Receptor binding test of β2 AR. The conditions noted are these: 3H-dihydroalprenolol; fascia of rat gravid uterus; read-out: binding affinity (IC50 value) to β2 AR. As for the experimental part:
Receptor Binding Tests of α2 AR and β2 AR
Receptor binding tests were conducted in ^3H-p-aminoclonidine and ^3H-dihydroalprenolol (3 rats in each) using specimens of the membrane of rat cerebral cortex (α2 AR) and the fascia of gravid uterus (β2 AR) as the sources of receptors. The binding ability of Compound 1 to α2 AR and β2 AR were obtained by calculating binding inhibition rates (IC50 values) of Compound 1 against the binding abilities of the above-mentioned tracers with both receptors.

In test [3] the test system is Seltzer model rats. The experiment in a line: Nociceptive threshold in Seltzer model rats (single administration), Randall-Selitto method. Format: in vivo, rat. The conditions noted are these: Example 6, FIG. 3, 10 mg/kg oral, one hour after administration. The text has this: Measurement of the Nociceptive Threshold in Seltzer Model Rats (Single Administration)
Ten, 9-week old male SD rats were anesthetized with pentobarbital (Nembutal injection®), and the right sciatic nerve was exposed. In Nerve ligation group (7 rats), half of the dorsal portion of the nerve was ligated using 5-0 nylon thread. In Normal group (3 rats), the sciatic nerve was only exposed. Three weeks after the model was created, the control group received the medium (0.5% methylcellulose) and Nerve ligation group was given orally test articles. Before the administration (before administration of test articles) and after administration (one hour after the administration of test articles), the nociceptive threshold against pressure stimulation given to the right hind-paw of rats was measured by Randall-Selitto method. Results before and after administration were compared.

In test [4] the test system is Seltzer model rats. The experiment in a line: Nociceptive threshold in Seltzer model rats (repeated administration), Randall-Selitto method. Format: in vivo, rat. The conditions noted are these: Example 7, FIG. 4; 10 mg/kg oral, 14-day repeated. As for the experimental part:
Measurement of the Nociceptive Threshold in Seltzer Model Rats (Repeated Administration)
Thirty, 7-week old male SD rats were anesthetized with pentobarbital (Nembutal injection®), and the right sciatic nerve was exposed. In the nerve ligation group (20 rats), half of the dorsal portion of the nerve was ligated using 6-0 silk thread. In the normal group (10 rats), the sciatic nerve was only exposed. Beginning the following day of the model creation, test articles were administered orally once a day, repeatedly, 14 times in total. Normal and Control groups received the medium (0.5% methyl-cellulose) and Nerve ligation group was given orally test articles. One hour after the final administration, the nociceptive threshold against pressure stimulation given to the right hind-paw of rats was measured by Randall-Selitto method, and compared with Control group.

Setting [5] is: Example 1, H group 1.0 mg/kg subcutaneous.
Setting [6] is: Example 1, L group 0.1 mg/kg subcutaneous.
The mark [7] stands for this setting: H group 1.0 mg/kg subcutaneous once a day.
Where [8] appears, read: L group 0.1 mg/kg subcutaneous once a day.
[9] abbreviates: M group 0.3 mg/kg subcutaneous once a day.
[10] abbreviates: Example 1, H group 10.0 mg/kg oral.
Where [11] appears, read: Example 1, L group 1.0 mg/kg oral.
The mark [12] stands for this setting: H group 10.0 mg/kg oral once a day.
[13] abbreviates: L group 1.0 mg/kg oral once a day.
Where [14] appears, read: M group 3.0 mg/kg oral once a day.

The structures appear in SMILES notation.

T1 sequence (P10608 whole entry): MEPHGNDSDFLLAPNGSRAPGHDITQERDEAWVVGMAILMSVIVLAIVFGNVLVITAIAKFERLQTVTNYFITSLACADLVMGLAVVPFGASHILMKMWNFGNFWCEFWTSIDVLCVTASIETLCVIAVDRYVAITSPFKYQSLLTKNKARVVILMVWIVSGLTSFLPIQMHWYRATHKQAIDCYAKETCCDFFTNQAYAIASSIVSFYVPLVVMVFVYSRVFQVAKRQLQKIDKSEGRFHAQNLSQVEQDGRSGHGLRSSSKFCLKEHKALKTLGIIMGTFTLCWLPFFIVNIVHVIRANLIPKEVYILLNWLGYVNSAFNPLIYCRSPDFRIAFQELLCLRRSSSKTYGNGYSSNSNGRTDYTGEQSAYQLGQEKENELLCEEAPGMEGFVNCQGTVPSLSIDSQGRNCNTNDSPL

For the molecule `Clc1cccc(Cl)c1N=C1NCCN1` [Clonidine, clonidine], the “analgesic effect compared with Control group” value in test [1] (Example 1, H group 1.0 mg/kg subcutaneous, after administration) is “apparent analgesic effect”. Besides, the “Nociceptive threshold before administration” value in test [1] (setting [5]) came out at 115.4 ± 8.9 g; in test [1] (setting [6]), 122.8 ± 7.5 g; in test [2] (setting [7]) it was 97.2 ± 14.5 g; in test [2] (setting [8]) it was 129.2 ± 15.9 g; in test [2] (setting [9]) it was 104.2 ± 13.8 g. Moreover, the “Nociceptive threshold after administration” value in test [1] (setting [5]) came out at 325.8 ± 29.8 g; in test [1] (setting [6]), 155.8 ± 16.3 g; in test [2] (setting [7]), 254.4 ± 33.3 g; in test [2] (setting [8]) it was 180.6 ± 24.4 g; in test [2] (setting [9]), 115.2 ± 18.2 g. Besides, the “nociceptive threshold following repeated administration for 14 days” value in test [2] is on record as “increased significantly”. In addition, the “nociceptive threshold after 14-day repeated, sole administration” value in test [2] is on record as “in neither L groups or M groups of either test articles, the nociceptive threshold increased”.

As to `CN(C)C(=O)COc1ccc2c(c1)C[C@@H](NC[C@H](O)c1ccc(O)c(CO)c1)CC2` [Compound 1, (-)-bis{2-[(2S)-2-[{(2R)-2-hydroxy-2-(4-hydroxy-3-hydroxymethyl-phenyl)ethyl}amino]-1,2,3,4-tetrahydronaphthalen-7-yloxy]-N,N-dimethylacetamide}sulfate dihydrate], the concentration for half-maximal inhibition (IC50) (commonly the concentration that inhibits the measured activity by half) on β2 AR worked out at 0.014 µM. The “Nociceptive threshold before administration” value in test [1] (Example 4, 0.3 mg/kg oral) stood at 71.8 ± 5.3 g; in test [1] (Example 4, 1.0 mg/kg oral), 95.0 ± 5.1 g; in test [1] (Example 4, 3.0 mg/kg oral), 92.0 ± 13.3 g; in test [1] (Example 4, 10.0 mg/kg oral) it was 89.0 ± 10.2 g. Moreover, the “Nociceptive threshold after administration” value in test [1] (Example 4, 0.3 mg/kg oral) is on record as 117.6 ± 10.7 g; in test [1] (Example 4, 1.0 mg/kg oral) it was 131.0 ± 12.3 g; in test [1] (Example 4, 3.0 mg/kg oral), 174.6 ± 15.4 g; in test [1] (Example 4, 10.0 mg/kg oral), 253.4 ± 28.3 g. In addition, the analgesic effects entry in test [1] (Example 4, 3 mg/kg and 10 mg/kg oral) was “apparent analgesic effects”. For the same molecule, the “nociceptive thresholds after administration, dose dependence” value is listed as “increased dose-dependently” in test [1] (Example 4, 0.3, 1, 3 and 10 mg/kg oral); “clearly increased dose-dependently beginning at dosage of 0.3 mg/kg” in test [2] (Example 5, FIG. 2, 0.3, 1, 3 and 10 mg/kg oral, 14-day repeated). The “nociceptive threshold compared with Normal group” value in test [2] (Example 5, FIG. 2, oral, 14-day repeated) is “improved the nociceptive threshold to the same level as in Normal group”. Moreover, the “effect of repeated administration compared with single administration” value in test [2] (Example 5, oral, 14-day repeated versus single) is given as “stronger effect increasing the nociceptive threshold than single administration”. Also, the “nociceptive threshold of Nerve ligation group in comparison with that before administration” value with Seltzer model rats [3] is “improved significantly”. In addition, the “nociceptive threshold of the right hind-paw in comparison with that of Control group” value in the test on Seltzer model rats [4] was “improved significantly”.

Consider `CC(C)(C)NCC(O)c1cc(O)cc(O)c1` (centres unmarked) [Terbutaline, terbutaline], for which the “Nociceptive threshold before administration” value in test [1] (setting [10]) worked out at 122.6 ± 14.5 g; in test [1] (setting [11]), 134.2 ± 6.3 g; in test [2] (setting [12]) it was 228.2 ± 11.1 g; in test [2] (setting [13]), 113.8 ± 11.9 g; in test [2] (setting [14]), 155.4 ± 32.0 g. Besides, the “Nociceptive threshold after administration” value is reported as 146.8 ± 20.7 g in test [1] (setting [10]); 152.8 ± 12.7 g in test [1] (setting [11]); 229.0 ± 14.8 g in test [2] (setting [12]); 115.2 ± 12.6 g in test [2] (setting [13]); 167.8 ± 32.3 g in test [2] (setting [14]). Moreover, in test [2], the “nociceptive threshold following repeated administration for 14 days” value is “increased significantly”. For the same molecule, in test [2], the “nociceptive threshold after 14-day repeated, sole administration” value was “in neither L groups or M groups of either test articles, the nociceptive threshold increased”.
